Assay results as given in US20040062729A1, “Photoprotective sunscreen compositions comprising 1,3,5-triazine compounds and triesters of benenetricarboxylic acids” (SOCIETE L'OREAL S.A., priority 2001, published 2004).

Conditions: 5 g 2,4-bis{[4-2-ethylhexyl-oxy)]-2-hydroxy]phenyl}-6-(4-methoxyphenyl)-1,3,5-triazine in 20 g solvent oil, heated to 83° C., cooled
Procedure: The solubilization time of 2,4-bis{[4-2-ethylhexyl-oxy)]-2-hydroxy]phenyl}-6-(4-methoxyphenyl)-1,3,5-triazine (screening agent) in various solvents is determined by means of the following test:
at room temperature, 20 g of solvent are added to 5 g of screening agent,
the mixture thus obtained is heated to 83° C. by means of a water bath,
after cooling, the possible presence of crystals is then observed under a microscope, between a slide and glass coverslips, in polarized light.

| Compound | Presence of crystals, storage in the cold (+4° C.) for 4 days | Presence of crystals, storage at room temperature for 4 days |
| --- | --- | --- |
| CCCCCCCCCCCCCCCC(=O)OCC(CC)CCCC (stereo not shown) [2-Ethylhexyl palmitate] | Crystals | Crystals |
| CCCCCCCCC(CCCCCC)C(=O)O (stereo not shown) [2-Hexyldecanoic acid] | Crystals | Crystals |
| CCCCCCCCCCC(CO)CCCCCCCC (stereo not shown) [2-Octyldodecanol] | Crystals | Crystals |
| C[Si]1(C)O[Si](C)(C)O[Si](C)(C)O[Si](C)(C)O[Si](C)(C)O1 [Cyclopentadimethylsiloxane] | Crystals | Crystals |
| CCCCC(CC)COC(=O)CCCCC(=O)OCC(CC)CCCC (stereo not shown) [Di(2-ethylhexyl) adipate] | Crystals | Crystals |
| CO[C@H]1CO[C@H]2[C@@H]1OC[C@H]2OC [Dimethyl isosorbide] | Crystals | Crystals |
| CCCCCCCCOC(=O)CC(O)C(=O)OCCCCCCCC (stereo not shown) [Dioctyl malate] | Crystals | Crystals |
| CC(CC(=O)OCC(COC(=O)CC(C)CC(C)(C)C)OC(=O)CC(C)CC(C)(C)C)CC(C)(C)C (stereo not shown) [Glyceryl triisononanoate] | Crystals | Crystals |
| CCCCCCCCC(CO)CCCCCC (stereo not shown) [Isocetyl alcohol, 2-hexyldecanol] | Crystals | Crystals |
| CC(C)CCCCCCCOC(=O)C(C)(C)C [Isodecyl neopentanoate] | Crystals | Crystals |
| CCCCCCCCCCCCCC(C)C [Isohexadecane] | Crystals | Crystals/Cloudy |
| CC(C)CCCCCCOC(=O)CCCCCC(C)C [Isononyl isononanoate] | Crystals | Crystals |
| CCCCC(CC)C(=O)OCC(C)(C)COC(=O)C(CC)CCCC (stereo not shown) [Neopentyl glycol di-2-ethylhexanoate] | Crystals | Crystals |
| CCCCCCCC/C=C\CCCCCCCCO [Oleyl alcohol] | Crystals | Crystals |
| Oxypropylenated butanediol (10 PO) | Crystals | Crystals |
| Oxypropylenated stearyl alcohol | Crystals | Crystals |
| Tridecyl trimellitate | Absence of | Absence of |
